# Key:
# [1] = Repeated-dose study in SHPT, stage 3 or 4 CKD, vitamin D insufficiency: serum total 25-hydroxyvitamin D; format: in vivo, human; conditions: target of 30 ng/mL; end of second month of treatment (EAP2)
# Protocol: (§1) A study is carried out with repeated-dosing of ERC (Rayaldee® (calcifediol) extended-release capsules), IR calcifediol (“IRC”), high-dose cholecalciferol (“HDC”), and paricalcitol plus low-dose cholecalciferol (“PLDC”) in adult patients with secondary hyperparathyroidism (SHPT), stage 3 or 4 chronic kidney disease (CKD) and vitamin D insufficiency.
# (§2) This is an open-label study to gather comparative data evaluating the ERC, IR calcifediol, high-dose cholecalciferol, and paricalcitol plus low-dose cholecalciferol. Eligible subjects were randomized 1:1:1:1 to receive 8 weeks of treatment with one of the listed study medications with a sufficient quantity of a non-alcoholic beverage to enable swallowing of the capsules: • 1) ERC capsules 60 μg once daily at bedtime, except on Days 1 and 29 when dosing occurred in the morning before breakfast in the phase 1 unit; • 2) IR calcifediol 266 μg before breakfast on the mornings of Day 1 and Day 29 in the phase 1 unit; • 3) cholecalciferol 300,000 IU (high-dose) before breakfast on the mornings of Day 1 and Day 29 in the phase 1 unit; and • 4) paricalcitol 1 μg (possibly increasing to 2 μg per day at Day 29) plus cholecalciferol 800 IU (low-dose) once daily in the morning before breakfast, except on the mornings of Days 1 and 29 when dosing occurred before breakfast in the phase 1 unit. […]
# Plasma iPTH = assay: Repeated-dose study (Example 3): plasma iPTH-lowering response; format: in vivo, human; conditions: EAP2
# Protocol: as §1, §2
# [2] = Stability of calcifediol in acidic dissolution media (Example 4); format: physicochemical; conditions: pH 1.2 medium, 37° C., after 6 hours
# Protocol: The stability of calcifediol was tested in acidic dissolution media at ambient/light conditions and also in dark conditions, at 37° C., 20° C., and 10° C., using 30 μg calcifediol extended release capsules.
degradation [2],SMILES,serum total 25-hydroxyvitamin D response rate [1] [%],plasma iPTH response rate (Plasma iPTH; response = ≥20% reduction from pre-treatment baseline) [%],plasma iPTH response rate (Plasma iPTH; response = ≥30% reduction from pre-treatment baseline) [%]
,"C=C1CC[C@H](O)C/C1=C/C=C1\CCC[C@]2(C)[C@@H]([C@H](C)CCCC(C)C)CC[C@@H]12 [HDC, cholecalciferol]",44,37.5,25.0
about 90%,C=C1CC[C@H](O)C/C1=C/C=C1\CCC[C@]2(C)[C@@H]([C@H](C)CCCC(C)(C)O)CC[C@@H]12 [calcifediol],,,
